pEC50, pIC50: −log10 of the molar value. Like-named read-outs stand apart in the source and are kept apart here.
How the values were obtained:
[1] = tested on: pSer473-Akt in A2780 cells; assay: pSer473 Akt assay to monitor PI3K pathway in A2780 cells (MSD); assay type: cell-based; conditions: Homo sapiens, A2780 cells
Outline: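 EC50 is derived from percent inhibition of Akt Ser473 phosphorylation, normalised to total Akt and compared with DMSO-only wells, read by MSD immunoassay. Lysates came from A2780 cells plated overnight at 15,000/well and exposed to compound for one hour at 37 °C.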

A2780 cells = assay: Viability assay in A2780 (Cell Titer Glo); assay type: cell-based, human; conditions: Homo sapiens, A2780 cells, read-out: A2780 Cell prolif. EC50
Outline: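 EC50 values come from Cell Titer Glo luminescence after 72 hrs of compound exposure at 37° C, run in duplicate. A2780 cells were plated at 1,000 per well in DMEM with 10% FBS and dosed with 3-fold serial dilutions.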

PI3 K Alpha = PI3 K Alpha (Homo sapiens, UniProt P42336); assay: PI3 kinase phosphorylation assays (homogenous solution phase, one step solid phase, ATP depletion/KinaseGlo); assay type: biochemical
Chain of PI3 K Alpha (P42336 whole entry): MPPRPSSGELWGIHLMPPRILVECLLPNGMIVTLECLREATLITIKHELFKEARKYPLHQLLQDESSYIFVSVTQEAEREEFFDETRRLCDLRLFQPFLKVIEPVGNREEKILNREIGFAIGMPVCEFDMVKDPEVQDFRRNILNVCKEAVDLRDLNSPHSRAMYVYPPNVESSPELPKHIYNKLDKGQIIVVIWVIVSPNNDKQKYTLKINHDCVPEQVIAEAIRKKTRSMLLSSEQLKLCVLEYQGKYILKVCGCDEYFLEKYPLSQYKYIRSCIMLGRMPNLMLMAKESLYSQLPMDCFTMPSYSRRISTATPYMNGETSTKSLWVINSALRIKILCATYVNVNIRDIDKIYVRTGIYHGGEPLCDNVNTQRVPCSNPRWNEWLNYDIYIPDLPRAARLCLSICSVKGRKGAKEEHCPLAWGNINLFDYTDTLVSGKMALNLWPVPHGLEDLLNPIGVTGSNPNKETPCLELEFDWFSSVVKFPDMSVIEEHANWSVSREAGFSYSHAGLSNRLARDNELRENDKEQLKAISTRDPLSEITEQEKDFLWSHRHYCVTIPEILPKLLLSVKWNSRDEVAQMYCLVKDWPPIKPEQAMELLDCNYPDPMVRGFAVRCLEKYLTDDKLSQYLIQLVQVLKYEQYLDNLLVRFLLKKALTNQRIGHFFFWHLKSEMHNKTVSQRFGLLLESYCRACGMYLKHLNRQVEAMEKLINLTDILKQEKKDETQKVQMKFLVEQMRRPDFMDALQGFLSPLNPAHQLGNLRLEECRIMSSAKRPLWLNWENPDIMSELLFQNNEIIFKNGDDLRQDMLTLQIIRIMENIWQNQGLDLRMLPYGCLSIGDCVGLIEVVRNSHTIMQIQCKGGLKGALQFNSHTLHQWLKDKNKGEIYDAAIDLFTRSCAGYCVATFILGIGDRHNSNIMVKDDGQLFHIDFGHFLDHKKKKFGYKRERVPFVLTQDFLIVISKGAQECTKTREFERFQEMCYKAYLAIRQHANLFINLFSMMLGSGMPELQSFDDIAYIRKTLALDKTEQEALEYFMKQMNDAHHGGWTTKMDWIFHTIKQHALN
Chain of PI3 K Alpha (P27986 whole entry partner): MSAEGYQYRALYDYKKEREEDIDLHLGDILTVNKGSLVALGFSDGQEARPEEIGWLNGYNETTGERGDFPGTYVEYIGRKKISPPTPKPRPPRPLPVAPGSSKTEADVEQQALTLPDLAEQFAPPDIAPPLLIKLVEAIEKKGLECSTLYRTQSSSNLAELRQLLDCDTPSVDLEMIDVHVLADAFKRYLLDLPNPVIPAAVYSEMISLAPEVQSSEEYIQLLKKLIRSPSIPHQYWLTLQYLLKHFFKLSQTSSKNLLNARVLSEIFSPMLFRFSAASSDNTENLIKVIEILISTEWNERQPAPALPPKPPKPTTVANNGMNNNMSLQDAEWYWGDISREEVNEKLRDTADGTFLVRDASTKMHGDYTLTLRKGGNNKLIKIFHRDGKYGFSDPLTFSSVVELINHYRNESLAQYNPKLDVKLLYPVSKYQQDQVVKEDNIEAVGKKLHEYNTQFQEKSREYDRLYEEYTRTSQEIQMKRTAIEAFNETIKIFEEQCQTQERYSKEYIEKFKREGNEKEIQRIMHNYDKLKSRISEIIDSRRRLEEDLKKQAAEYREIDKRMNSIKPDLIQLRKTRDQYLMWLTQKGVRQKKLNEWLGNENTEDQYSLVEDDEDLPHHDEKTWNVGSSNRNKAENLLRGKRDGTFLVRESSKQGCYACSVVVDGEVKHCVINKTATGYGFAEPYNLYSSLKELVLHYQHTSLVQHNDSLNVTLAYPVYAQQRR

SMILES | pEC50 ([1]; read-out: A2780 pAKT 473 EC50) | pEC50 (A2780 cells) | pIC50 (PI3 K Alpha; read-out: PI3K Alpha IC50) | pEC50 ([1]; 1 h, one hour incubation, read-out: A2780 pAKT473 EC50) | pEC50 (A2780 cells; 72 hrs) | pIC50 (PI3 K Alpha; ATP depletion assay, read-out: PI3 K Alpha IC50)
CC(=O)Nc1cn2cc(-c3cnc(N)c(C#N)c3)ccc2n1 [Example 235, N-(6-(6-amino-5-cyanopyridin-3-yl)imidazo[1,2-a]pyridin-2-yl)acetamide] | > 5.00 | > 5.00 | > 6.00 |  |  | 
Nc1ccc(-c2ccc3nc(NC(=O)CCCN4CCOCC4)sc3c2)cn1 [Example 2-10, N-[6-(6-Amino-pyridin-3-yl)-benzothiazol-2-yl]-4-morpholin-4-yl-butyramide] |  |  |  | > 6.00 | > 4.60 | > 6.00
CC(=O)Nc1cn2nc(-c3cnc(N)c(-c4ccccc4)c3)ccc2n1 [Example 84, N-(6-(6-amino-5-phenylpyridin-3-yl)imidazo[1,2-b]pyridazin-2-yl)acetamide] | > 6.00 | > 6.00 | > 6.00 |  |  | 
Cc1cc(C(=O)Nc2cn3cc(-c4cnc(N)c(C(F)(F)F)c4)ccc3n2)no1 [Example 94, N-(6-(6-amino-5-(trifluoromethyl)pyridin-3-yl)imidazo[1,2-a]pyridin-2-yl)-5-methylisoxazole-3-carboxamide] | > 6.00 | > 6.00 | > 6.00 |  |  | 
CC(=O)Nc1cn2cc(-c3cnc(N)c(-c4cccc(OC(F)(F)F)c4)c3)ccc2n1 [Example 92, N-(6-(6-amino-5-(3-(trifluoromethoxy)phenyl)pyridin-3-yl)imidazo[1,2-a]pyridin-2-yl)acetamide] | > 5.00 | > 6.00 | > 6.00 |  |  | 
Nc1ncc(-c2ccc3nc(NC(=O)Cc4cccc5ccccc45)cn3c2)cc1C(F)(F)F [Example 110, N-(6-(6-amino-5-(trifluoromethyl)pyridin-3-yl)imidazo[1,2-a]pyridin-2-yl)-2-(naphthalen-1-yl)acetamide] | > 6.00 | > 6.00 | > 6.00 |  |  | 
CC(=O)Nc1cn2cc(-c3cnc(N)c(Oc4ccc(F)cc4)n3)ccc2n1 [Example 63, N-(6-(5-amino-6-(4-fluorophenoxy)pyrazin-2-yl)imidazo[1,2-a]pyridin-2-yl)acetamide] | > 6.00 | > 6.00 | > 6.00 |  |  | 
CC(=O)Nc1cn2nc(-c3cnc(N)c(-c4ccccc4OC(F)(F)F)c3)ccc2n1 [Example 90, N-(6-(6-amino-5-(2-(trifluoromethoxy)phenyl)pyridin-3-yl)imidazo[1,2-b]pyridazin-2-yl)acetamide] | > 6.00 | > 6.00 | > 6.00 |  |  | 
CC(=O)Nc1cn2cc(-c3cnc(N)c(Oc4ccccc4)n3)ccc2n1 [Example 75, N-(6-(5-amino-6-phenoxypyrazin-2-yl)imidazo[1,2-a]pyridin-2-yl)acetamide] | > 6.00 | > 6.00 | > 6.00 |  |  | 
CCN(CC)C(=O)c1cc(-c2ccc3nc(NC(C)=O)cn3c2)cnc1N [Example 218, 5-(2-acetamido-imidazo[1,2-a]pyridin-6-yl)-2-amino-N,N-diethyl-nicotinamide] | > 6.00 | > 5.00 | > 6.00 |  |  | 
CCOc1nc(-c2ccc3nc(NC(C)=O)cn3n2)cnc1N [Example 184, N-(6-(5-amino-6-ethoxypyrazin-2-yl)imidazo[1,2-b]pyridazin-2-yl)acetamide] | > 6.00 | > 5.00 | > 6.00 |  |  | 
Nc1ncc(-c2ccc3nc(NC(=O)c4cccnc4)cn3c2)cc1C(F)(F)F [Example 123, N-(6-(6-amino-5-(trifluoromethyl)pyridin-3-yl)imidazo[1,2-a]pyridin-2-yl)nicotinamide] | > 6.00 | > 5.00 | > 6.00 |  |  | 
CC(=O)Nc1cn2cc(-c3cnc(N)c(OC4CN(C(=O)c5ccccc5)C4)n3)ccc2n1 [Example 128, N-(6-(5-amino-6-(1-benzoylazetidin-3-yloxy)pyrazin-2-yl)imidazo[1,2-a]pyridin-2-yl)acetamide] | > 6.00 | > 5.00 | > 6.00 |  |  | 
CC(=O)Nc1cn2cc(-c3cnc(N)c(-c4ccc(N5CCOCC5)cc4)c3)ccc2n1 [Example 39, N-(6-(6-amino-5-(4-morpholino-phenyl)pyridin-3-yl)imidazo[1,2-a]pyridin-2-yl)acetamide] | > 5.00 | > 5.00 | > 5.00 |  |  | 
CC(=O)Nc1nc2ccc(-c3cnc(N)c(C(F)(F)F)c3)cn2c1Cl [Example 7, N-[6-(6-Amino-5-trifluoromethyl-pyridin-3-yl)-3-chloro-imidazo[1,2-a]pyridin-2-yl]-acetamide] | > 5.00 | > 5.00 | > 6.00 |  |  | 
CCN1CCCCC1CCC(=O)Nc1cn2nc(-c3cnc(N)c(C(F)(F)F)c3)ccc2n1 (stereo not drawn) [Example 104, N-(6-(6-amino-5-(trifluoromethyl)pyridin-3-yl)imidazo[1,2-b]pyridazin-2-yl)-3-(1-ethylpiperidin-2-yl)propanamide] | > 6.00 | > 6.00 | > 6.00 |  |  | 
Nc1ncc(-c2ccc3nc(NC(=O)CCO)cn3c2)cc1C(F)(F)F [Example 205, N-(6-(6-amino-5-(trifluoromethyl)pyridin-3-yl)imidazo[1,2-a]pyridin-2-yl)-3-hydroxypropanamide] | > 6.00 | > 5.00 | > 6.00 |  |  | 
CCN(CC)CC#Cc1c(NC(C)=O)nc2ccc(-c3cnc(N)c(C(F)(F)F)c3)cn12 [Example 30, N-[6-(6-Amino-5-trifluoromethyl-pyridin-3-yl)-3-(3-diethylamino-prop-1-ynyl)-imidazo[1,2-a]pyridin-2-yl]-acetamide] | > 6.00 | > 5.00 | > 6.00 |  |  | 
Nc1ncc(-c2ccc3nc(NC(=O)c4ccc(F)cc4)cn3c2)cc1C(F)(F)F [Example 78, N-(6-(6-amino-5-(trifluoromethyl)pyridin-3-yl)imidazo[1,2-a]pyridin-2-yl)-4-fluorobenzamide] | > 6.00 | > 6.00 | > 6.00 |  |  | 
Nc1ncc(-c2ccc3nc(NC(=O)CCCO)cn3c2)cc1C(F)(F)F [Example 27, N-[6-(6-Amino-5-trifluoromethyl-pyridin-3-yl)-imidazo[1,2-a]pyridin-2-yl]-4-hydroxy-butyramide] | > 6.00 | > 5.00 | > 6.00 |  |  | 
CC(=O)Nc1cn2cc(-c3cnc(N)c(C(=O)NCCN4CCCC4)n3)ccc2n1 [Example 100, 6-(2-acetamido-imidazo[1,2-a]pyridin-6-yl)-3-amino-N-(2-(pyrrolidin-1-yl)ethyl) pyrazine-2-carboxamide] | > 6.00 | > 6.00 | > 6.00 |  |  | 
Nc1ncc(-c2ccc3nc(NC(=O)CCCN4CCCCC4)cn3n2)cc1C(F)(F)F [Example 71, N-(6-(6-amino-5-(trifluoromethyl)pyridin-3-yl)imidazo[1,2-b]pyridazin-2-yl)-4-(piperidin-1-yl)butanamide] | > 6.00 | > 6.00 | > 6.00 |  |  | 
Nc1ncc(-c2ccc3nc(NC(=O)c4ccc(-n5ccnc5)cc4)cn3c2)cc1C(F)(F)F [Example 187, N-(6-(6-amino-5-(trifluoromethyl)pyridin-3-yl)imidazo[1,2-a]pyridin-2-yl)-4-(1H-imidazol-1-yl)benzamide] | > 6.00 | > 5.00 | > 6.00 |  |  | 
Nc1ncc(-c2ccc3nc(NC(=O)CCCN4CCOCC4)cn3c2)cc1C(F)(F)F [Example 26, N-[6-(6-Amino-5-trifluoromethyl-pyridin-3-yl)-imidazo[1,2-a]pyridin-2-yl]-4-morpholin-4-yl-butyramide] | > 6.00 | > 5.00 | > 6.00 |  |  | 
